According to patent publication US9944602B2, “Piperidinone herbicides” (E. I. DU PONT DE NEMOURS AND COMPANY, priority 2014, dated 2018):

Key:
Format in all cases: in vivo
[1] = test system: wheat (Triticum aestivum); assay: Test A postemergence wheat; conditions: Triticum aestivum, post-emergence, 240 h, 0 to 100 scale, 0 is no effect, 100 is complete control, read-out: Plant response rating, Wheat; for plant injury at 125 g/ha: 125 g ai/ha; for plant injury at 500 g/ha: 500 g ai/ha
Method in brief: (§1)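 Plants were grown in a blend of loam soil and sand. For preemergence testing the soil was sprayed directly after seeding, while postemergence testing used seedlings 2–10 cm high at one to two leaves; all treatments were rated visually for injury (0–100) after ~10 d.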

[2] = test system: pigweed (Amaranthus retroflexus); assay: Test A postemergence pigweed; conditions: Amaranthus retroflexus, post-emergence, 240 h, 0 to 100 scale, 0 is no effect, 100 is complete control, read-out: Plant response rating, Pigweed; for pest or weed control at 125 g/ha: 125 g ai/ha; for pest or weed control at 500 g/ha: 500 g ai/ha
Method in brief: as §1

[3] = test system: ryegrass, Italian (Italian ryegrass, Lolium multiflorum); assay: Test A preemergence ryegrass, Italian; conditions: Lolium multiflorum, pre-emergence, 240 h, 0 to 100 scale, 0 no effect, 100 complete control, read-out: Ryegrass, Italian plant response rating
Method in brief: as §1

[4] = test system: foxtail, giant (giant foxtail, Setaria faberii); assay: Test A postemergence foxtail, giant; conditions: Setaria faberi, post-emergence, 240 h, 0 to 100 scale, 0 is no effect, 100 is complete control, read-out: Plant response rating, Foxtail, Giant; for pest or weed control at 125 g/ha: 125 g ai/ha; for pest or weed control at 500 g/ha: 500 g ai/ha
Method in brief: as §1

[5] = test system: ragweed (common ragweed, Ambrosia elatior); assay: Test A preemergence ragweed; conditions: Ambrosia artemisiifolia, pre-emergence, 240 h, 0 to 100 scale, 0 no effect, 100 complete control, read-out: Ragweed plant response rating
Method in brief: as §1

[6] = test system: sedge, umbrella (small-flower umbrella sedge, Cyperus difformis); assay: Test B flooded paddy test sedge, umbrella; conditions: Cyperus difformis, Table B, Flood, 250 g ai/ha, scale 0 to 100, read-out: Plant response rating
Method in brief: (§2)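 Once seedlings reached two leaves, pots were flooded 3 cm deep and treated via the paddy water, which remained at that level. Evaluation was visual, against controls, after 13 to 15 d under greenhouse conditions.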

[7] = test system: pigweed (Amaranthus retroflexus); assay: Test A preemergence pigweed; conditions: Amaranthus retroflexus, pre-emergence, 240 h, 0 to 100 scale, 0 no effect, 100 complete control, read-out: Pigweed plant response rating; for pest or weed control at 125 g/ha: 125 g ai/ha; for pest or weed control at 500 g/ha: 500 g ai/ha
Method in brief: as §1

[8] = test system: galium (catchweed bedstraw, Galium aparine); assay: Test A postemergence galium; conditions: Galium, post-emergence, 240 h, 0 to 100 scale, 0 is no effect, 100 is complete control, read-out: Plant response rating, Galium
Method in brief: as §1

kochia (Kochia scoparia) [9] = assay: Test A preemergence kochia; conditions: Bassia scoparia, pre-emergence, 240 h, 0 to 100 scale, 0 no effect, 100 complete control, read-out: Kochia plant response rating
Method in brief: as §1

rice (Oryza sativa) [10] = assay: Test B flooded paddy test rice; conditions: Oryza sativa, Table B, Flood, 250 g ai/ha, scale 0 to 100, read-out: Plant response rating
Method in brief: as §2

corn (Zea mays) = assay: Test A postemergence corn; conditions: Zea mays, post-emergence, 240 h, 0 to 100 scale, 0 is no effect, 100 is complete control; for Corn plant response rating (crop injury, 0 = no effect, 100 = complete kill) at 125 g/ha: 125 g ai/ha; for Corn plant response rating (crop injury, 0 = no effect, 100 = complete kill) at 500 g/ha: 500 g ai/ha
Method in brief: as §1

kochia (Kochia scoparia) [11] = assay: Test A postemergence kochia; conditions: Bassia scoparia, post-emergence, 240 h, 0 to 100 scale, 0 is no effect, 100 is complete control, read-out: Plant response rating, Kochia
Method in brief: as §1

[12] = test system: ragweed (common ragweed, Ambrosia elatior); assay: Test A postemergence ragweed; conditions: Ambrosia artemisiifolia, post-emergence, 240 h, 0 to 100 scale, 0 is no effect, 100 is complete control, read-out: Plant response rating, Ragweed
Method in brief: as §1

[13] = test system: barnyardgrass (Echinochloa crus-galli); assay: Test A preemergence barnyardgrass; conditions: 0 to 100 scale; for pest or weed control at 125 g/ha: 125 g ai/ha
Method in brief: as §1

[14] = test system: barnyardgrass (Echinochloa crus-galli); assay: Test A postemergence barnyardgrass; conditions: Echinochloa crus-galli, post-emergence, 240 h, 0 to 100 scale, 0 is no effect, 100 is complete control, read-out: Plant response rating, Barnyardgrass; for pest or weed control at 125 g/ha: 125 g ai/ha; for pest or weed control at 500 g/ha: 500 g ai/ha
Method in brief: as §1

[15] = test system: ryegrass, Italian (Italian ryegrass, Lolium multiflorum); assay: Test A postemergence ryegrass, Italian; conditions: Lolium multiflorum, post-emergence, 240 h, 0 to 100 scale, 0 is no effect, 100 is complete control, read-out: Plant response rating, Ryegrass, Italian
Method in brief: as §1

[16] = test system: barnyardgrass (Echinochloa crus-galli); assay: Test B flooded paddy test barnyardgrass; conditions: Echinochloa crus-galli, Table B, Flood, 250 g ai/ha, scale 0 to 100, read-out: Plant response rating
Method in brief: as §2

[17] = test system: ducksalad (Heteranthera limosa); assay: Test B flooded paddy test ducksalad; conditions: Heteranthera limosa, Table B, Flood, 250 g ai/ha, scale 0 to 100, read-out: Plant response rating
Method in brief: as §2

[18] = test system: foxtail, giant (giant foxtail, Setaria faberii); assay: Test A preemergence foxtail, giant; conditions: Setaria faberi, pre-emergence, 240 h, 0 to 100 scale, 0 no effect, 100 complete control, read-out: Foxtail, Giant plant response rating; for pest or weed control at 125 g/ha: 125 g ai/ha; for pest or weed control at 500 g/ha: 500 g ai/ha
Method in brief: as §1

[19] = test system: blackgrass (Alopecurus myosuroides); assay: Test A postemergence blackgrass; conditions: Alopecurus myosuroides, post-emergence, 240 h, 0 to 100 scale, 0 is no effect, 100 is complete control, read-out: Plant response rating, Blackgrass
Method in brief: as §1

[20] = test system: barnyardgrass (Echinochloa crus-galli); assay: Test C flooded paddy test barnyardgrass; conditions: Table C, Flood, 1000 g ai/ha, scale 0 to 100
Source text: (§3) Plant species in the flooded paddy test consisted of rice (Oryza sativa), sedge, umbrella (small-flower umbrella sedge, Cyperus difformis), ducksalad (Heteranthera limosa), and barnyardgrass (Echinochloa crus-galli) grown to the 2-leaf stage for testing. At time of treatment, test pots were flooded to 3 cm above the soil surface, treated by application of test compounds directly to the paddy water, and then maintained at that water depth for the duration of the test. Treated plants and controls were maintained in a greenhouse for 13 to 15 d, after which time all species were compared to controls and visually evaluated. Plant response ratings, summarized in Table C, are based on a scale of 0 to 100 where 0 is no effect and 100 is complete control. A dash (-) response means no test result.

[21] = test system: ducksalad (Heteranthera limosa); assay: Test C flooded paddy test ducksalad; conditions: Table C, Flood, 1000 g ai/ha, scale 0 to 100
Source text: as §3

rice (Oryza sativa) [22] = assay: Test C flooded paddy test rice; conditions: Table C, Flood, 1000 g ai/ha, scale 0 to 100
Source text: as §3

[23] = test system: sedge, umbrella (small-flower umbrella sedge, Cyperus difformis); assay: Test C flooded paddy test sedge, umbrella; conditions: Table C, Flood, 1000 g ai/ha, scale 0 to 100
Source text: as §3

[24] = Echinochloa crus-galli, pre-emergence, 240 h, 0 no effect, 100 complete control, read-out: Barnyardgrass plant response rating

Row | Compound | plant injury at 125 g/ha [1] | plant injury at 500 g/ha [1] | pest or weed control at 125 g/ha [2] | pest or weed control at 500 g/ha [2] | pest or weed control at 125 g/ha [4] | pest or weed control at 500 g/ha [4] | pest or weed control at 250 g/ha [6] | pest or weed control at 125 g/ha [7] | pest or weed control at 500 g/ha [7] | plant injury at 250 g/ha (rice (Oryza sativa) [10]) | Corn plant response rating (crop injury, 0 = no effect, 100 = complete kill) at 125 g/ha (corn (Zea mays)) | Corn plant response rating (crop injury, 0 = no effect, 100 = complete kill) at 500 g/ha (corn (Zea mays)) | pest or weed control at 125 g/ha [13, 24] | pest or weed control at 125 g/ha [14] | pest or weed control at 500 g/ha [14] | pest or weed control at 250 g/ha [16] | pest or weed control at 250 g/ha [17] | pest or weed control at 125 g/ha [18] | pest or weed control at 500 g/ha [18] | other results
1 | CN1CC[C@H](c2ccc(F)cc2)[C@@H](C(=O)Nc2ccccc2C(F)(F)F)C1=O [Compound 53, (3S,4S)-4-(4-fluorophenyl)-1-methyl-2-oxo-N-[2-(trifluoromethyl)phenyl]-3-piperidinecarboxamide] | 0% | 20% | 0% | 0% | 0% | 20% | 0% | 0% | 50% | 0% | 0% | 20% | 0% | 0% | 0% | 0% | 0% | 0% | 90% | pest or weed control at 125 g/ha ([3]; 125 g ai/ha): 0%; pest or weed control at 500 g/ha ([3]; 500 g ai/ha): 0%; pest or weed control at 125 g/ha ([5]; 125 g ai/ha): 0%; pest or weed control at 500 g/ha ([5]; 500 g ai/ha): 0%; pest or weed control at 125 g/ha ([8]; 125 g ai/ha): 0%; pest or weed control at 500 g/ha ([8]; 500 g ai/ha): 0%; pest or weed control at 125 g/ha (kochia (Kochia scoparia) [9]; 125 g ai/ha): 0%; pest or weed control at 500 g/ha (kochia (Kochia scoparia) [9]; 500 g ai/ha): 0%; pest or weed control at 125 g/ha (kochia (Kochia scoparia) [11]; 125 g ai/ha): 0%; pest or weed control at 500 g/ha (kochia (Kochia scoparia) [11]; 500 g ai/ha): 0%; pest or weed control at 125 g/ha ([12]; 125 g ai/ha): 0%; pest or weed control at 500 g/ha ([12]; 500 g ai/ha): 0%; pest or weed control at 500 g/ha ([13]; Echinochloa crus-galli, pre-emergence, 240 h, 500 g ai/ha, 0 no effect, 100 complete control, read-out: Barnyardgrass plant response rating): 80%; pest or weed control at 125 g/ha ([15]; 125 g ai/ha): 0%; pest or weed control at 500 g/ha ([15]; 500 g ai/ha): 0%; pest or weed control at 125 g/ha ([19]; 125 g ai/ha): 0%; pest or weed control at 500 g/ha ([19]; 500 g ai/ha): 20%
2 | O=C1NCCC(c2cccc(C(F)(F)F)c2)C1C(=O)Nc1cccc(F)c1F (stereo not drawn) [Compound 9, N-(2,3-difluorophenyl)-2-oxo-4-[3-(trifluoromethyl)phenyl]-3-piperidinecarboxamide] | 20% | 40% | 0% | 0% | 80% | 90% | 0% | 0% | 0% | 0% | 40% | 80% | 90% | 80% | 90% | 75% | 90% | 90% | 90% | Plant response rating [20]: 80; Plant response rating [21]: 98; Plant response rating (rice (Oryza sativa) [22]): 10; Plant response rating, Barnyardgrass ([13]; 500 g ai/ha, 0 is no effect, 100 is complete control): 90; Plant response rating [23]: 0
